From ChEMBL document CHEMBL1148159, “An analysis of phakellin and oroidin structures stimulated by further study of an Agelas sponge” (J Nat Prod, 2004)

Biological target: T1, Polyunsaturated fatty acid lipoxygenase ALOX12 (Homo sapiens, UniProt P18054)
T1 sequence (P18054 whole entry): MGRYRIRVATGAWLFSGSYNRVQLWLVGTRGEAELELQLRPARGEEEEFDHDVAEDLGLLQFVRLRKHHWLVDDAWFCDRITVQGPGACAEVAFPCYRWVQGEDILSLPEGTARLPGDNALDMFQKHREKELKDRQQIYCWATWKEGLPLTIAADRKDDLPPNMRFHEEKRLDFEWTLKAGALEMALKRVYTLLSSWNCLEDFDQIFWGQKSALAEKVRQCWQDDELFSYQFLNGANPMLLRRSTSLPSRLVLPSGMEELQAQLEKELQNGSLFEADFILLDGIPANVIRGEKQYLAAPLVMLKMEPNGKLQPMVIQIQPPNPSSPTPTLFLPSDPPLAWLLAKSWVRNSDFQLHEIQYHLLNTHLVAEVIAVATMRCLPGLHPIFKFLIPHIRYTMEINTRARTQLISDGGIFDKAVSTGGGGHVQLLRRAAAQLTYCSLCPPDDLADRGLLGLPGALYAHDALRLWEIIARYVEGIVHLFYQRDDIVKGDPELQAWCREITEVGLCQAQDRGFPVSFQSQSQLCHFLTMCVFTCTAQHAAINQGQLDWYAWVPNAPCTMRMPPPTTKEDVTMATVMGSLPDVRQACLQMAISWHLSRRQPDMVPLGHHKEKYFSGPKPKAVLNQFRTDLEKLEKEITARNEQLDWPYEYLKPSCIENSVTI
Assay: Inhibition of human 12-lipoxygenase

CN1C(N)=N[C@]23CCCN2C(=O)c2cc(Br)c(Br)n2[C@H]13
IC50: 10.7 µM
